From patent publication US5873359A, “Methods and devices for treating pulmonary vasoconstriction and asthma” (The General Hospital Corporation, priority 1994, dated 1999) come the findings set out here.

Assay [1] relates to pulmonary hypertension in ARDS. Nature of the assay: Inhaled NO versus i.v. prostacyclin in adult with ARDS (first subject). It is filed as in vivo, human. The protocol:
First subject. The patient had suffered for three weeks from adult respiratory distress syndrome (ARDS) due to aspiration pneumonia. There was diffuse pulmonary edema and a large QVA /QT (30%). After 21 days of venovenous extracorporeal membrane oxygenator support (3 liters/min blood flow), the mean PAP was 55 mm Hg.
The short term effects of inhaled nitric oxide were compared with those of i.v. prostacyclin (PGI2; 5ng/kg/min). Mean pulmonary arterial pressure (PAP), right ventricular ejection fraction (RVEF) and gas exchange variables were evaluated. RVEF was assessed by thermodilution, and gas exchange alterations were analyzed using the multiple inert gas elimination technique (MIGET). MIGET and RVEF date were obtained on two different occasions. Ventilator settings were tidal volume 6 ml/kg, respiratory rate 14/min, Fi O2 0.4-0.48 and 5 cm H2 O of PEEP (positive end expiratory pressure).

A further assay deals with airway resistance. In words: Methacholine infusion alone (stability of bronchoconstrictor model). It is filed as in vivo, Hartley strain guinea pigs. To be noted: methacholine infusion (FIG. 13). The method, then: (§1) Male Hartley strain guinea pigs (300-440g body wt) were anesthetized with α-chloralose (50 mg/kg) and urethane (500 mg/kg) (Drazen et al., J. Appl. Physiol. 48:613-618, 1980). A tracheostomy was performed, and the animals were intubated with a tubing adaptor (ID 1.65 mm) and ventilated with a small animal ventilator (Harvard Apparatus, a division of Ealing Scientific, Natick, Mass.) at 8 ml/kg and 60 breaths/min. A jugular vein was cannulated for intravenous administration of drugs. The chest was opened by bilateral excision of a portion of the ribs anteriorly so that the lungs were exposed to atmospheric pressure (Shore and Drazen, J. Appl. Physiol. 67:2504-2511, 1989). A positive end expiratory pressure of 3-4 cmH2 O was provided.
(§2) Guinea pigs were then placed inside a plethysmograph (Amdur and Mead, Am. J. Physiol. 192:363-368, 1958), that was connected to a large reservoir containing copper mesh to maintain the plethysmograph isothermal. Plethysmograph pressure was measured with a differential pressure transducer (Celesco, Canoga Park, Calif.); the opposite side of this transducer was connected to a similar reservoir. Pressure at the airway opening was measured from a side tap in the tracheal canula. Transpulmonary pressure was measured with a differential pressure transducer (Celesco) as the difference between airway opening pressure and the pressure inside the plethysmograph. […]

Assay [2] relates to persistent pulmonary hypertension of the newborn (PPHN). It is filed as in vivo, human. To be noted: standard dosage, infused, during nitric oxide. The method, then:
First subject. Through compassionate use, nitric oxide was administered to an infant suffering from persistent pulmonary hypertension and congenital heart disease. As a result of prolonged ventilation, absence of a preductal arterial blood sampling site, and the existence of the atrial-ventricular (AV) canal, the patient was not included in the PPHN study mentioned above.
The patient was a 3225 gm, full term person who had been treated with extracorporeal membrane oxygenation (ECMO) because of the severity of their congenital heart disease and profound hypoxemia. They had been taken off ECMO and was being maintained intubated and ventilated in the newborn intensive care unit. They subsequently became progressively hypoxemic, as reflected in their post-ductal pulse oximetry (POX) values. By the time they were taken to the catheterization laboratory to confirm the existence of the A-V canal and to determine if some emergent cardiac surgery was needed, they were receiving maximal medical and ventilatory life support and remained dangerously hypoxemic. Under these circumstances, we were granted consent to treat the patient with nitric oxide.
Upon arrival to the catheterization laboratory, the patient was extremely cyanotic. They were treated with fentanyl, oxygen, hyperventilation and intravenous fluid boluses to stabilize them prior to administering NO.
We utilized a regulator to step-down the pressure of the NO into a blender, which allowed us to adjust the relative amounts of the 800 ppm NO/N2 and 100% N2 supplies. Treating the patient with pure oxygen, we increased the flow of N2 through a flow regulator into the inspiratory circuit of the breathing cicuit until the FI O2 was 0.9. This provided a 1:10 dilution of the nitrogen gas. We then used the blender to adjust the relative amounts of N2 and […] to provide 0 to 80 ppm of NO.

Assay [3] concerns methacholine bronchoconstriction. In words: NO and terbutaline aerosol during methacholine infusion. It is filed as in vivo, Hartley strain guinea pigs. To be noted: NO gas before or after inhaled terbutaline. The protocol: as §1, §2
Where [4] appears, read: occasion #1, PGI2 5ng/kg/min i.v.
Where [5] appears, read: occasion #2, PGI2 5ng/kg/min i.v.

Consider `CCCCC[C@H](O)/C=C/[C@@H]1[C@H]2C/C(=C/CCCC(=O)O)O[C@H]2C[C@H]1O` [PGI2, prostacyclin, reference compound], for which, in assay [1] (PGI2, i.v.), the “QVA /QT” value worked out at 57%. Moreover, the “PAP and RVEF” value in assay [1] (inhaled NO and i.v. PGI2, text) was “lowered PAP and improved RVEF”. In assay [1] (setting [4]), this compound displayed an MAP of 81 mm Hg, a PAP of 46 mm Hg, a PCWP of 12 mm Hg and a PaO2 of 74 torr. Moreover, in assay [1] (setting [4]), the “QA /QT” value is reported as 57%, the “VD /VT” value is reported as 51% and the “low VD /Q” value is on record as 0%. In assay [1] (setting [5]), this compound returned an MAP of 86 mm Hg, a PAP of 42 mm Hg, a PCWP of 14 mm Hg and a PaO2 of 81 torr. Besides, the RVEF in assay [1] (setting [5]) stood at 42%.
As to `CC(=O)OC(C)C[N+](C)(C)C` (centres unmarked) [methacholine], in the assay with airway resistance, the airway resistance result is reported as “stably increasing levels of airway resistance for up to one hour”.
In the case of `CCCCC[C@H](O)/C=C/[C@H]1[C@H](O)CC(=O)[C@@H]1CCCCCCC(=O)O` [prostaglandin E1, reference compound], in assay [2], the “effect of prostaglandin infusion on need for nitric oxide” value is reported as “nitric oxide could not be discontinued without the return of dangerously low oxygen saturations”.
As to `CC(C)(C)NCC(O)c1cc(O)cc(O)c1` (centres unmarked) [terbutaline, reference compound], the “bronchodilating effects of NO plus terbutaline” value in assay [3] is listed as “additive”.
